Test results: patent US8716277B2, “Substituted imidazole compounds useful as positive allosteric modulators of mGlu5 receptor activity” (Boehringer Ingelheim International GmbH, priority 2011, dated 2014)

Target: T1, human recombinant mGluR5 (Homo sapiens, UniProt P41594)
T1 construct: expressed in transfected cells; host or cells: HEK 293
Test: positive modulation of mGluR5, calcium based FLIPR assay
Conditions: EC50 of the modulation; HEK 293 cell line expressing human recombinant mGluR5; glutamate at approximately 5% basal stimulation; peak height of Ca fluorescence signal
Procedure: The positive modulation of mGluR5 is measured in a HEK 293 cell line expressing human recombinant mGluR5 and is detected with calcium based FLIPR assay. The cells are cultured with DMEM supplemented with 10% FCS, 2 μg/mL tetracycline, 100 μg/mL hygromycin and 500 μg/mL gneticin. The cell culture media is exchanged for tetracycline-free cell culture media 3-7 days before the assay. One day before the assay the cell culture medium is exchanged to DMEM without glutamine and phenol red and supplemented with 10% FCS, 100 μg/mL hygromycin and 500 μg/mL geneticin. On the assay day, the medium of the subconfluent cultures is removed and the cells are detached by addition of 2.5 ml EDTA(0.02%) per 175 cm2 culture flask for 1 minute. The cells are resuspend in Ringer solution (140 mM NaCl, 5 mM KCl, 2.5 mM CaCl2, 1.5 mM MgCl2, 5 mM Glucose, 10 mM Hepes; adjusted to pH 7.4 with NaOH), pooled and Ringer solution added to adjust the volume to 50 mL. The cell suspension is centrifuged for […] at 1500 U/min (425 g). The supernatant is removed and the cells washed a second time with 50 ml fresh Ringer solution and centrifuged again as before. The supernatant is again removed and the pellet resuspended in Ringer solution to 1,000,000 cells/ml (1×10^6 cells/mL). The cells are plated onto BD BioCoat Poly-D-Lysine 384 well plates (20,000 cells/well; 20 μl/well). The lid covered plates are then incubated until use at 37° C./10% CO2. For dye loading, 20 μl of Calcium-4 assay kit solution (prepared according to the manufacturer's description in Ringer solution) are added to the cells and the plates are incubated for […] 37° C. and then […] at room temperature.
Controls, Compound Dilution and Assay Execution:
Each assay plate contained wells with “high” and “low” controls:
Low controls 1% DMSO/ringer solution + basal glutamate activation (defined as 100% CTL).
High controls 10 μM CDPPB+ basal glutamate activation (defined as 200% CTL).
Test compounds are dissolved and diluted in DMSO to 100-fold the desired concentrations. In a second step, the compounds are diluted in Ringer solution such that the compounds are 4-fold more concentrated than the desired final assay concentration. The final DMSO concentration was 1%.
20 μl of each compound solution are then transferred to the assay plate and the Ca2+ kinetic is measured to determine any intrinsic compound activity. After 5 mM incubation in the FLIPR device, the second stimulation with 20 μl of glutamate in Ringer solution (glutamate concentration adjusted to approximately 5% basal stimulation of the maximal possible glutamate effect) is added and the kinetic Ca2+ response of the wells was measured for the modulation effect.
The peak height of the Ca release related fluorescence signal (9-66) is used for the EC50. The EC50 of the modulation is calculated over a nonlinear regression with GraphPad Prism (Table 1).

T1 sequence (P41594 21-1212): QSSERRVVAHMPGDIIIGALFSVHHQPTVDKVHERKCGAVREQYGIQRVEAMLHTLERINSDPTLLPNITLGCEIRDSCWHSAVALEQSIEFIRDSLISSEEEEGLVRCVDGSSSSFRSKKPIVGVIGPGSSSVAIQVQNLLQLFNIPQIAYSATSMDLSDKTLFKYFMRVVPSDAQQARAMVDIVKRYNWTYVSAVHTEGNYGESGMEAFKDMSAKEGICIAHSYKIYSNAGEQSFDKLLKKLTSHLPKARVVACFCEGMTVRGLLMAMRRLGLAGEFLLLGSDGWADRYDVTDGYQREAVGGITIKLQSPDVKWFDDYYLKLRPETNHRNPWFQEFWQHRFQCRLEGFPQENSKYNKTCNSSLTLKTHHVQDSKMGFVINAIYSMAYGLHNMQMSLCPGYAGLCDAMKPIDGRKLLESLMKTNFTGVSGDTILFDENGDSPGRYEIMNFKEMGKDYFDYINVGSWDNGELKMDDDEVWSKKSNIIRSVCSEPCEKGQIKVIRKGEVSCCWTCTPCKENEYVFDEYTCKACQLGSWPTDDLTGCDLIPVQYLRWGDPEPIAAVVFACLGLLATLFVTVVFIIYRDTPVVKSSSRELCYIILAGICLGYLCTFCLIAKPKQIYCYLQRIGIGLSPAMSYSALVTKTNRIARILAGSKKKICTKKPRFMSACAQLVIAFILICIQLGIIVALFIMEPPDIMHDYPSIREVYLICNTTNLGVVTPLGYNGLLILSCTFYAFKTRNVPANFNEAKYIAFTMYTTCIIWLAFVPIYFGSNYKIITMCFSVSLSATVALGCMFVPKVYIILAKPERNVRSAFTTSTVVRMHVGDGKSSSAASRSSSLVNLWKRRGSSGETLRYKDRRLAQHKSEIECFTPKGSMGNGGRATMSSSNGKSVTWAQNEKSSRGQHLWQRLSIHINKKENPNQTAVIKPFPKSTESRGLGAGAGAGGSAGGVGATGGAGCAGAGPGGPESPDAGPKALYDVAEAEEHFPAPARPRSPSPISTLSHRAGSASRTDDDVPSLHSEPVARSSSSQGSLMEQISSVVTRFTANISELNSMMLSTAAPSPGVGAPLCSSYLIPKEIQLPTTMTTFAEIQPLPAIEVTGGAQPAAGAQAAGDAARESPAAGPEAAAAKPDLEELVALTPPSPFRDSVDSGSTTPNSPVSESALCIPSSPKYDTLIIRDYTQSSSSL

EC50 [nM] | SMILES
784 | Cc1nc2c(o1)CN(C(=O)Cc1nc(-c3ccc(F)cc3)cn1-c1ccc(F)cc1)CC2 [Example 7.01.01., 2-(1,4-Bis-(4-fluoro-phenyl)-1H-imidazol-2-yl)-1-(2-methyl-6,7-dihydro-4H-oxazolo[5,4-c]pyridin-5-yl)-ethanone]
109 | Nc1nc2c(s1)CCN(C(=O)Cc1nc(-c3ccc(F)cc3)cn1-c1ccc(F)cc1)CC2 [Example 7.01.02.]
94 | Cc1nc2c(s1)CCN(C(=O)Cc1nc(-c3ccc(F)cc3)cn1-c1ccc(F)cc1)CC2 [Example 7.02.01., 2-[1,4-Bis-(4-fluoro-phenyl)-1H-imidazol-2-yl]-1-(2-methyl-4,5,7,8-tetrahydro-thiazolo[4,5-d]azepin-6-yl)-ethanone]
114 | O=C(Cc1nc(-c2ccc(F)cc2)cn1-c1ccc(F)cc1)N1CCN(c2noc3ccccc23)CC1 [Example 7.02.02.]
210 | Cc1nc2c(s1)CN(C(=O)Cc1nc(-c3ccc(F)cc3)cn1-c1ccc(F)cc1)C2 [Example 7.02.03.]
375 | Cc1ccc(-c2cn(-c3ccc(F)cc3)c(CC(=O)N3CCc4nc(C)oc4C3)n2)cc1 [Example 7.02.04.]
52 | Cc1ccc(-c2cn(-c3ccc(F)cc3)c(CC(=O)N3CCc4nc(N)sc4CC3)n2)cc1 [Example 7.02.05.]
93 | Cc1ccc(-c2cn(-c3ccc(F)cc3)c(CC(=O)N3CCc4nc(C)sc4CC3)n2)cc1 [Example 7.02.06.]
96 | COc1cccc(N2CCN(C(=O)Cc3nc(-c4ccc(C)cc4)cn3-c3ccc(F)cc3)CC2=O)c1 [Example 7.02.07.]
32 | Cc1ccc(-c2cn(-c3ccc(F)cc3)c(CC(=O)N3CCN(c4cccc(C#N)c4)C(=O)C3)n2)cc1 [Example 7.02.08.]
90 | Cc1ccc(-c2cn(-c3ccc(F)cc3)c(CC(=O)N3Cc4nc(C)sc4C3)n2)cc1 [Example 7.02.09.]
103 | COc1ccc(-c2cn(-c3ccc(F)cc3)c(CC(=O)N3CCc4nc(N)sc4CC3)n2)cc1 [Example 7.02.11.]
39 | COc1ccc(-c2cn(-c3ccc(F)cc3)c(CC(=O)N3CCc4nc(C)sc4CC3)n2)cc1 [Example 7.02.12.]
74 | COc1ccc(-c2cn(-c3ccc(F)cc3)c(CC(=O)N3CCN(c4cccc(OC)c4)C(=O)C3)n2)cc1 [Example 7.02.13.]
87 | COc1ccc(-c2cn(-c3ccc(F)cc3)c(CC(=O)N3Cc4nc(C)sc4C3)n2)cc1 [Example 7.02.14.]
45 | Cc1nc2c(s1)CCN(C(=O)Cc1nc(-c3ccc(Cl)c(C)c3)cn1-c1ccc(F)cc1)CC2 [Example 7.02.15.]

EC50 [nM] | SMILES
70 | Cc1cc(-c2cn(-c3ccc(F)cc3)c(CC(=O)N3CCc4nc(N)sc4CC3)n2)ccc1Cl [Example 7.02.16.]
80 | Cc1nc2c(o1)CN(C(=O)Cc1nc(-c3ccc(Cl)c(C)c3)cn1-c1ccc(F)cc1)CC2 [Example 7.02.17.]
67 | Cc1nc2c(s1)CCN(C(=O)Cc1nc(-c3ccc(F)c(C)c3)cn1-c1ccc(F)cc1)CC2 [Example 7.02.18.]
67 | Cc1nc2c(o1)CN(C(=O)Cc1nc(-c3ccc(F)c(C)c3)cn1-c1ccc(F)cc1)CC2 [Example 7.02.19.]
70 | Cc1cc(-c2cn(-c3ccc(F)cc3)c(CC(=O)N3CCc4nc(N)sc4CC3)n2)ccc1F [Example 7.02.20.]
1120 | COc1cccc(-c2cn(-c3ccc(F)cc3)c(CC(=O)N3CCc4nc(C)oc4C3)n2)c1 [Example 7.02.21.]
138 | COc1cccc(-c2cn(-c3ccc(F)cc3)c(CC(=O)N3CCc4nc(C)sc4CC3)n2)c1 [Example 7.02.22.]
394 | COc1ccc(-c2cn(-c3ccccc3)c(CC(=O)N3CCc4nc(N)sc4CC3)n2)cc1 [Example 7.02.23.]
125 | COc1ccc(-c2cn(-c3ccccc3)c(CC(=O)N3CCc4nc(C)sc4CC3)n2)cc1 [Example 7.02.24.]
1440 | COc1ccc(-c2cn(-c3ccccc3)c(CC(=O)N3CCc4nc(C)oc4C3)n2)cc1 [Example 7.02.25.]
71 | Cc1cc(-c2cn(-c3ccccc3)c(CC(=O)N3CCc4nc(N)sc4CC3)n2)ccc1F [Example 7.02.26.]
94 | COc1cccc(N2CCN(C(=O)Cc3nc(-c4ccc(F)c(C)c4)cn3-c3ccccc3)CC2=O)c1 [Example 7.02.27.]
48 | Cc1nc2c(s1)CN(C(=O)Cc1nc(-c3ccc(F)c(C)c3)cn1-c1ccccc1)C2 [Example 7.02.28.]
33 | Cc1nc2c(s1)CCN(C(=O)Cc1nc(-c3ccc(F)c(C)c3)cn1-c1ccccc1)CC2 [Example 7.02.29.]
82 | COc1ccc(-c2cn(-c3ccc(F)cc3)c(CC(=O)N3CCN(c4cccc(C#N)c4)C(=O)C3)n2)cc1 [Example 7.02.30.]
